# Measurements: BindingDB's records for doi:10.1021/jm00163a043 (Michigan Cancer Foundation, 1990)
# pKi: −log10 of the molar value.
# Target: thymidine kinase (Oryctolagus cuniculus)
# Test: Inhibitory affect against rabbit thymus thymidine kinase
row,pKi,Compound
1,3.35,O=c1ccn([C@H]2C=C[C@@H](CO)O2)c(=O)[nH]1
2,2.77,O=c1[nH]c(=S)ccn1[C@H]1C=C[C@@H](CO)O1
3,2.89,O=c1[nH]c(=S)ccn1[C@H]1CC[C@@H](CO)O1

# Target: thymidine kinase (Oryctolagus cuniculus)
# Test: as above
# Remark: another data set of the same source
row,pKi,Compound
1,2.80,Cc1cn([C@H]2CC[C@@H](CO)O2)c(=O)[nH]c1=S
2,2.77,Cc1cn([C@H]2C=C[C@@H](CO)O2)c(=O)[nH]c1=S
3,4.27,Cc1cn([C@H]2C[C@H](N=[N+]=[N-])[C@@H](CO)O2)c(=O)[nH]c1=S
